Reference: patent US20090062401A1, “DECALINE-DERIVED COMPOUNDS AS […] ACTIVE AGENTS” (UNIVERSITAT DORTMUND, priority 2004, published 2009)

Columns and labels:
[1] = molecular target: 11beta-HSD1 (Homo sapiens, UniProt P28845); experiment: biochemical; conditions: read-out: IC50 Target 11beta-HSD1
Text: (§1) Assay protocols for Cdc25A, 11βHSD1, 11βHSD2, and AChE are described in detain in the publication of Koch M A, Wittenberg L O, Basu S, Jeyaraj D A, Gourzoulidou E, Reinecke K, Odermatt A, Waldmann H (Proc. Natl. Acad. Sci. U.S.A. 2004 Nov. 30; 101(48):16721-6) and in Koch M A et al., Proc. Natl. Acad. Sci. U.S.A. 2005 Nov. 29; 102 (48):17272-7.

[2] = molecular target: MPTPA (Mycobacterium tuberculosis, UniProt P9WIA1); experiment: MtPTPA phosphatase inhibition, general phosphatase assay using para-nitrophenylphosphate; assay type: biochemical; conditions: read-out: IC50 Target MPTPA
MPTPA, sequence (P9WIA1 whole entry): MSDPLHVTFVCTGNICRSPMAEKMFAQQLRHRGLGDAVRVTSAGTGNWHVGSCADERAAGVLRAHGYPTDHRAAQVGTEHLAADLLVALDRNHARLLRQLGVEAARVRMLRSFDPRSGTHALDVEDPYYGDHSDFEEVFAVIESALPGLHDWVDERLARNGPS
Text: (§2) Assays protocols for the other enzymes mentioned herein (MtPTPA, PP1, VHR, PTP1B) are disclosed in Schweizer R A S, Atanasov, G A, Frey B M, and Odermatt A, Mol. Cell. Endocrinol. 2003, 212, 41-49 and Barratte, B., Meijer L., Galaktionov K. & Beach D, Anticancer Res. 1992, 12, 873-880. For determination of the phosphatase activity, a general phosphatase assay using para-nitrophenylphosphate was applied.

[3] = molecular target: VHR (Homo sapiens, UniProt P51452); experiment: VHR phosphatase inhibition, general phosphatase assay using para-nitrophenylphosphate; assay type: biochemical; conditions: read-out: IC50 Target VHR
VHR, sequence (P51452 whole entry, species assumed): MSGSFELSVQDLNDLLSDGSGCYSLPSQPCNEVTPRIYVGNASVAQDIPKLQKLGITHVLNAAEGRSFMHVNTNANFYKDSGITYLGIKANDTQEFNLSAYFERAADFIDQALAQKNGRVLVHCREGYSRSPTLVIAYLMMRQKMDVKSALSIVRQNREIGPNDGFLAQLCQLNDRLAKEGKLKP
Text: as §2

[4] = molecular target: T1, PTP1B (Homo sapiens, UniProt P18031); experiment: PTP1B phosphatase inhibition, general phosphatase assay using para-nitrophenylphosphate; assay type: biochemical; conditions: read-out: IC50 Target PTP1B
T1 sequence (P18031 1-435): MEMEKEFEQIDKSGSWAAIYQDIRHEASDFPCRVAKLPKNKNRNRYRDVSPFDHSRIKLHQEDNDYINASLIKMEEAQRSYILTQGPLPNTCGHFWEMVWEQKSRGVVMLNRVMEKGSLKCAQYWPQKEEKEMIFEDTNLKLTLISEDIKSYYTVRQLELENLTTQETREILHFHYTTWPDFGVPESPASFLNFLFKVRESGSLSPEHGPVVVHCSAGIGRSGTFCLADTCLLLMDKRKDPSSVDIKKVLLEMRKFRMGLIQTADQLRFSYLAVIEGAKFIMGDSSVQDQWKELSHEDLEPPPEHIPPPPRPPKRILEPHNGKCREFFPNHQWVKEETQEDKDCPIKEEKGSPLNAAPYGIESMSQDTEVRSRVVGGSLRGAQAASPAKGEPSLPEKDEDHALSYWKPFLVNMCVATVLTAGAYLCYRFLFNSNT
Text: as §2

[5] = molecular target: T2, Cdc25A (Homo sapiens, UniProt P30304); experiment: Cdc25A phosphatase inhibition; assay type: biochemical; conditions: read-out: IC50 Target Cdc25A
T2 sequence (P30304 1-524): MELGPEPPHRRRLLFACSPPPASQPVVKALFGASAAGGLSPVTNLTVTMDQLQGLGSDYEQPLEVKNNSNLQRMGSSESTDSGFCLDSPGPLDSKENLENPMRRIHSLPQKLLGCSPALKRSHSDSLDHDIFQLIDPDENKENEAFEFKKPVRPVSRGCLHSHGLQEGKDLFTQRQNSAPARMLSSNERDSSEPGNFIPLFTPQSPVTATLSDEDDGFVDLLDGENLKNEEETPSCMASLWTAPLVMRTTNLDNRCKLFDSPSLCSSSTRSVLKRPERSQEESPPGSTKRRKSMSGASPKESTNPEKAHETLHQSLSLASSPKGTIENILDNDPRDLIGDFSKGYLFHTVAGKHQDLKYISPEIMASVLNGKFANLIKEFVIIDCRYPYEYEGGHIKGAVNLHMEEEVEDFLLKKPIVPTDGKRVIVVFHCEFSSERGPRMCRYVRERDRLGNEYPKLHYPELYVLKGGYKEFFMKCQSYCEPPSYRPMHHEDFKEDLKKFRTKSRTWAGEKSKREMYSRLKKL
Text: as §1

11beta-HSD1, sequence (P28845 whole entry): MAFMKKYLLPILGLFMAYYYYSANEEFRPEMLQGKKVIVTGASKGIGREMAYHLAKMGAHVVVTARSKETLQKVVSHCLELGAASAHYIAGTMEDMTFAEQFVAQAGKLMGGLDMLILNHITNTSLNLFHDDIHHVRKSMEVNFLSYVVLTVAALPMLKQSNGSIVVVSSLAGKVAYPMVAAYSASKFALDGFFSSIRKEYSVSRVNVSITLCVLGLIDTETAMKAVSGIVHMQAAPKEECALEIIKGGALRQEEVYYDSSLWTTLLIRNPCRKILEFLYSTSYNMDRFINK

With `C=C1C(C)=C2CCC[C@H](O)[C@@]2(C)C/C1=C\c1ccccc1` [Compound 97, (1S,7E,8aS)-7-Benzyliden-1,2,3,4,6,7,8,8a-octahydro-5,8a-dimethyl-6-methylennaphthalen-1-ol] the IC50 [1] was under 10 µM.

Compound `CCCC#Cc1ccc(/C=C2\C[C@@]3(Cc4ccccc4)C(=C(C)C2=O)CCC[C@@H]3O)cc1` [Compound 130, (3E,4aS,5S)-3-[4-(Pent-1-inyl)benzyliden]-4a-benzyl-4,4a,5,6,7,8-hexahydro-5-hydroxy-1-methylnaphthalen-2(3H)-one] has an IC50 [2] of 10 to 50 µM and an IC50 [3] of 10 to 50 µM.

`CC1=C2CCC[C@H](O)[C@@]2(C)C/C(=C\c2ccc(C#CCN(C)C)cc2)C1=O` [Compound 51, (3E,4aS,5S)-3-{4-[3-(Dimethylamino)prop-1-inyl]benzyliden}-4,4a,5,6,7,8-hexahydro-5-hydroxy-1,4a-dimethylnaphthalen-2(3H)-one] was tested, and the IC50 [4] was 10 to 50 µM, the IC50 [5] was under 10 µM and the IC50 [3] was 10 to 50 µM.

For `CC1=C2CCC[C@H](O)[C@@]2(C)C/C(=C\C=C\c2ccco2)C1=O` [Compound 60, (3E,4aS,5S)-3-[(E)-3-(Furan-2-yl)allyliden]-4,4a,5,6,7,8-hexahydro-5-hydroxy-1,4a-dimethylnaphthalen-2(3H)-one], the IC50 [4] was 10 to 50 µM, the IC50 [5] was 10 to 50 µM and the IC50 [3] was 10 to 50 µM.

`CCCCCCC#Cc1ccc(/C=C2\C[C@@]3(C)C(CCC[C@@H]3O)C(C)C2=O)cc1` (stereo partly drawn) [Compound 125, (E,4aS,5S)-3-[4-(Oct-1-inyl)-benzyliden]-octahydro-5-hydroxy-1,4a-dimethylnaphthalen-2(1H)-one] was tested, and the IC50 [2] was 10 to 50 µM and the IC50 [3] was 10 to 50 µM.

With `CC1(Cc2cccc(I)c2)C(=O)CC[C@@]2(C)C1CCC[C@@H]2O` (stereo partly drawn) [Compound 398, (4aS,5S)-5-Hydroxy-1-(3-iodo-benzyl)-1,4a-dimethyl-octahydro-naphthalen-2-one] the IC50 [4] was 10 to 50 µM, the IC50 [5] was 10 to 50 µM and the IC50 [3] was 10 to 50 µM.

`CCCCCCCCCCCCCCC#Cc1ccc(/C=C2\C[C@@]3(C)C(CCC[C@@H]3O)C(C)C2=O)cc1` (stereo partly drawn) [Compound 127, (E,4aS,5S)-3-[4-(Hexadec-1-inyl)benzyliden]-octahydro-5-hydroxy-1,4a-dimethylnaphthalen-2(1H)-one] gave an IC50 [2] of 10 to 50 µM and an IC50 [3] of 10 to 50 µM.

In the case of `CSc1ccc(/C=C2\C[C@@]3(C)C(=C(C)C2=O)CCC[C@@H]3O)cc1` [Compound 11, (3E,4aS,5S)-3-[4-(Methylthio)benzyliden]-4,4a,5,6,7,8-hexahydro-5-hydroxy-1,4a-dimethylnaphthalen-2(3H)-one], the IC50 [1] is reported as under 10 µM.

With `CC1=C2CCC[C@H](O)[C@@]2(C)CC(=Cc2ccc(NC3CCCCC3)cc2)C1=O` [Compound 399, (4aS,5S)-3-(4-Cyclohexylamino-benzylidene)-5-hydroxy-1,4a-dimethyl-4,4a,5,6,7,8-hexahydro-3H-naphthalen-2-one] the IC50 [1] was under 10 µM.

With `CC1=C2CCC[C@H](O)[C@@]2(C)C/C(=C\c2cccnc2)C1=O` [Compound 10, (3E,4aS,5S)-4,4a,5,6,7,8-Hexahydro-5-hydroxy-1,4a-dimethyl-3-[(pyridin-3-yl)methylen]naphthalen-2(3H)-one] the IC50 [1] was under 10 µM.

With `CC1=C2CCC[C@H](O)[C@@]2(C)C/C(=C\c2ccc(Br)cc2)C1=O` [Compound 65, (3E,4aS,5S)-3-(4-Brombenzyliden)-4,4a,5,6,7,8-hexahydro-5-hydroxy-1,4a-dimethylnaphthalen-2(3H)-one] the IC50 [1] was 10 to 50 µM.

`CC1(Cc2cc(Br)cc(Br)c2)C(=O)/C(=C/c2ccc(I)cc2)CC2(C)C1CCCC21OCCO1` (stereo not drawn) [Compound 416, (7′E)-5′-(3,5-Dibromobenzyl)-7′-(4-iodo-benzylidene)-5′,8a′-dimethylhexahydro-2′H-spiro[1,3-dioxolane-2,1′-naphthalen]-6′(5′H)-one] was tested, and the IC50 [4] was 10 to 50 µM and the IC50 [1] was under 10 µM.

In the case of `CCCCCCCCCCCCC#Cc1ccc(/C=C2\C[C@@]3(Cc4ccccc4)C(=C(C)C2=O)CCC[C@@H]3O)cc1` [Compound 134, (3E,4aS,5S)-3-[4-(Tetradec-1-inyl)benzyliden]-4a-benzyl-4,4a,5,6,7,8-hexahydro-5-hydroxy-1-methylnaphthalen-2(3H)-one], the IC50 [2] is reported as 10 to 50 µM and the IC50 [3] is reported as 10 to 50 µM.

`CCc1ccc(/C=C2\C[C@@]3(C)C(=C(C)C2=O)CCC[C@@H]3O)c(C)c1` [Compound 23, (3E,4aS,5S)-3-(4-Ethyl-2-methylbenzyliden)-4,4a,5,6,7,8-hexahydro-5-hydroxy-1,4a-dimethylnaphthalen-2(3H)-one] was tested, and the IC50 [1] was under 10 µM.

`CC1=C2CCC[C@H](O)[C@@]2(C)C/C(=C\c2ccc(C#CC3CCCCC3)cc2)C1=O` [Compound 73, (3E,4aS,5S)-3-[4-(2-Cyclohexyl-ethinyl)benzyliden]-4,4a,5,6,7,8-hexahydro-5-hydroxy-1,4a-dimethylnaphthalen-2(3H)-one] was tested, and the IC50 [1] was under 10 µM.

Compound `CC1C=CCC2CCC(=Cc3ccco3)C(=O)C12` (stereo not drawn) [Compound 394, 2-Furan-2-ylmethylene-8-methyl-3,4,4a,5,8,8a-hexahydro-2H-naphthalen-1-one] has an IC50 [4] of under 10 µM, an IC50 [5] of 10 to 50 µM and an IC50 [3] of 10 to 50 µM.

`CC1=C2CCC[C@H](O)[C@@]2(C)C/C(=C\c2ccoc2)C1=O` [Compound 8, (3E,4aS,5S)-3-[(Furan-3-yl)methylen]-4,4a,5,6,7,8-hexahydro-5-hydroxy-1,4a-dimethylnaphthalen-2(3H)-one] gave an IC50 [4] of 10 to 50 µM, an IC50 [5] of 10 to 50 µM and an IC50 [3] of under 10 µM.

In the case of `CCN(CC)C1CC[C@@]2(C)C(=C1C)CCC[C@@H]2O` (stereo partly drawn) [Compound 388, (1S,8aS)-6-(Diethylamino)-1,2,3,4,6,7,8,8a-octahydro-5,8a-dimethylnaphthalen-1-ol], the IC50 [2] is reported as 10 to 50 µM.

Compound `CCCCCCCCCCC/C=C1\C[C@@]2(C)C(=C(C)C1=O)CCC[C@@H]2O` [Compound 22, (3E,4aS,5S)-3-Dodecyliden-4,4a,5,6,7,8-hexahydro-5-hydroxy-1,4a-dimethylnaphthalen-2(3H)-one] has an IC50 [1] of under 10 µM.

Compound `CCCCC#Cc1ccc(/C=C2\C[C@@]3(C)C(=C(C)C2=O)CCC[C@@H]3O)cc1` [Compound 40, (3E,4aS,5S)-3-[4-(Hex-1-inyl)benzyliden]-4,4a,5,6,7,8-hexahydro-5-hydroxy-1,4a-dimethyl-naphthalen-2(3H)-one] has an IC50 [4] of 10 to 50 µM, an IC50 [5] of 10 to 50 µM and an IC50 [3] of 10 to 50 µM.

`C=C1C(C)=C2CCC[C@H](O)[C@@]2(C)C/C1=C\CCCC` [Compound 98, (1S,7E,8aS)-1,2,3,4,6,7,8,8a-Octahydro-5,8a-dimethyl-6-methylen-7-pentylidennaphthalen-1-ol] gave an IC50 [1] of under 10 µM.

`COc1ccc(/C=C2\C[C@@]3(C)C(=C(C)C2=O)CCC[C@@H]3O)c(O)c1` [Compound 14, (3E,4aS,5S)-3-(2-Hydroxy-4-methoxybenzyliden)-4,4a,5,6,7,8-hexahydro-5-hydroxy-1,4a-dimethylnaphthalen-2(3H)-one] showed an IC50 [1] of under 10 µM.

With `CC1=C2CCC[C@H](O)[C@@]2(C)C/C(=C\c2ccc(C#CC(C)OC(C)(C)C)cc2)C1=O` (stereo partly drawn) [Compound 38, (3E,4aS,5S)-3-[4-(3-tert-Butoxybut-1-inyl)benzyliden]-4,4a,5,6,7,8-hexahydro-5-hydroxy-1,4a-dimethylnaphthalen-2(3H)-one] the IC50 [4] was 10 to 50 µM, the IC50 [5] was under 10 µM and the IC50 [3] was 10 to 50 µM.

`CC1=C2CCC[C@H](O)[C@@]2(C)C/C(=C\c2ccc(F)c(F)c2)C1=O` [Compound 1, (3E,4aS,5S)-3-(3,4-Difluorbenzyliden)-4,4a,5,6,7,8-hexahydro-5-hydroxy-1,4a-dimethyl-naphthalen-2(3H)-one] was tested, and the IC50 [1] was under 10 µM and the IC50 [3] was 10 to 50 µM.

Work on `CC1C=CCC2CCCC(=O)C12` (stereo not drawn) [Compound 407, 8-Methyl-3,4,4a,5,8,8a-hexahydro-2H-naphthalen-1-one] yielded an IC50 [1] of under 10 µM.
